US20250163047A1, “HETEROCYCLIC COMPOUNDS, COMPOSITIONS THEREOF, AND METHODS OF TREATMENT THEREWITH” (BeiGene, Ltd., priority 2022, published 2025)

Legend:
Cbl-b (aa36-427) = target: T1, Cbl-b (aa36-427) (Homo sapiens, UniProt Q13191); experiment: Co-expressed Cbl-b with BirA biochemical assay (CBLB/E2-Ub binding, HTRF); conditions: 0.6 nM Cbl-b co-expressed with BirA, HTRF; read-out: co-express CBLB/E2-Ub-binding assay IC50
T1 construct: Cbl-b (aa36-427, in-house); made in house
Description: (§1) The assay in the absence of a Cbl-b/Cbl inhibitor, where phosphorylation of Cbl-b/Cbl by the Src kinase allows UbcH5B-Ub to bind to Cbl-b/Cbl and brings the Bodipy-Fluorescein tagged ubiquitin in proximity to the streptavidin-terbium bound to the N-terminal biotinylated Avi-tagged Cbl-b/Cbl. […] The lack of a FRET signal indicates Cbl-b/Cbl is inhibited by the Cbl-b/Cbl inhibitor.

Cbl (aa49-434) = target: T2, Cbl (aa49-434) (Homo sapiens, UniProt P22681); experiment: Co-expressed Cbl with BirA biochemical assay (CBL/E2-Ub binding, HTRF); conditions: 0.6 nM Cbl co-expressed with BirA, read-out: co-express CBL/E2-Ub-binding assay IC50
T2 construct: Cbl (aa49-434, in-house); made in house
T2 sequence (P22681 49-434): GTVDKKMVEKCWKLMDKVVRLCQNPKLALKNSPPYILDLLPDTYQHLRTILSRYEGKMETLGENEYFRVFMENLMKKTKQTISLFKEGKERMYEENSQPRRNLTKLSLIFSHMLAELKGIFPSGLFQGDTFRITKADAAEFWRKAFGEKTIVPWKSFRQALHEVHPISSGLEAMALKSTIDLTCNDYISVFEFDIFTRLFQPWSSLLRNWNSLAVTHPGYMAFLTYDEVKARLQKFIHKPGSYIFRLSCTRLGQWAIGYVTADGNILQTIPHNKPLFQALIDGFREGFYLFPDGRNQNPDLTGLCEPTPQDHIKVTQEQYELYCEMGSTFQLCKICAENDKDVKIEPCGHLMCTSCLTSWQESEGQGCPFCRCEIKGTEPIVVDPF
Description: as §1

T1 sequence (Q13191 36-427): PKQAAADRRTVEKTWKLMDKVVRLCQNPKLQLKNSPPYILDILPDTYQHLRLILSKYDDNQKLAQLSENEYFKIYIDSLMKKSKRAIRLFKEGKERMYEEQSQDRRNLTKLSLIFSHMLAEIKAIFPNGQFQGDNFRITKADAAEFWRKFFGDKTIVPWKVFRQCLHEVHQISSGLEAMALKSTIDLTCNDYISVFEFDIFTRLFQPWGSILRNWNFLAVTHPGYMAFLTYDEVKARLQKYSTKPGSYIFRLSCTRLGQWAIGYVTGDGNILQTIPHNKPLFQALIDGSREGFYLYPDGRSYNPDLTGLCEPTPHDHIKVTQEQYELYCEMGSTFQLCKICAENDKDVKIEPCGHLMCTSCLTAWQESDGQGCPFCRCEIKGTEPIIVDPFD

Compound	IC50 (Cbl-b (aa36-427))	IC50 (Cbl (aa49-434))
C[C@H]1CCCN(Cc2cc(C(=O)Nc3cccc([C@]4(c5nncn5C)C[C@@H](CC#N)C4)c3)nc3c2OCC3(C)C)C1 [Compound C10, 3,3-dimethyl-7-{[(3S)-3-methylpiperidin-1-yl]methyl}-N-{3-[(1s, 3s)-3-(cyanomethyl)-1-(4-methyl-1,2,4-triazol-3-yl)cyclobutyl]phenyl}-2H-furo[3,2-b]pyridine-5-carboxamide]	2.3 nM	26.6 nM
C[C@H](NCc1cc(C(=O)Nc2cccc([C@]3(c4nncn4C)C[C@@H](CC#N)C3)c2)nc2cc[nH]c12)C1CCC1 [Compound B31, N-(3-((1s,3R)-3-(cyanomethyl)-1-(4-methyl-4H-1,2,4-triazol-3-yl)cyclobutyl)phenyl)-7-((((S)-1-cyclobutylethyl)amino)methyl)-1H-pyrrolo[3,2-b]pyridine-5-carboxamide]	0.8 nM	0.7 nM
C[C@H](NCc1cc(C(=O)Nc2cccc([C@]3(c4nncn4C)C[C@@H](C)C3)c2)nc2c1NCC2(C)C)C1CCC1 [Compound C46, 7-({[(1S)-1-cyclobutylethyl]amino}methyl)-3,3-dimethyl-N-{3-[(1r, 3s)-3-methyl-1-(4-methyl-1,2,4-triazol-3-yl)cyclobutyl]phenyl}-1H,2H-pyrrolo[3,2-b]pyridine-5-carboxamide]	0.7 nM	1.8 nM
CC(C)CNCc1cc(C(=O)Nc2cccc([C@]3(c4nncn4C)C[C@@H](C)C3)c2)nc2cc[nH]c12 [Compound B1, 7-((isobutylamino)methyl)-N-(3-((1s, 3s)-3-methyl-1-(4-methyl-4H-1,2,4-triazol-3-yl)cyclobutyl)phenyl)-1H-pyrrolo[3,2-b]pyridine-5-carboxamide]	0.7 nM	2.1 nM
CC(C)CNCc1cc(C(=O)Nc2cccc([C@]3(c4nncn4C)C[C@@H](C)C3)c2)c2ncc(F)n2c1 [Compound A62, 3-fluoro-6-((isobutylamino)methyl)-N-(3-((1s, 3s)-3-methyl-1-(4-methyl-4H-1,2,4-triazol-3-yl)cyclobutyl)phenyl)imidazo[1,2-a]pyridine-8-carboxamide]	1.1 nM	7 nM
Cn1cnnc1[C@]1(c2cccc(NC(=O)c3cc(CNC4(C)CC4)cn4ccnc34)c2)C[C@H](CC#N)C1 [Compound A25, N-(3-((1s, 3s)-3-(cyanomethyl)-1-(4-methyl-4H-1,2,4-triazol-3-yl)cyclobutyl)phenyl)-6-(((1-methylcyclopropyl)amino)methyl)imidazo[1,2-a]pyridine-8-carboxamide]	1.5 nM	10.5 nM
Cc1cnc2c(C(=O)Nc3cccc([C@]4(c5nncn5C)C[C@@H](C)C4)c3)cc(CNCC3CCC3)cn12 [Compound A53, 6-(((cyclobutylmethyl)amino)methyl)-3-methyl-N-(3-((1s, 3s)-3-methyl-1-(4-methyl-4H-1,2,4-triazol-3-yl)cyclobutyl)phenyl)imidazo[1,2-a]pyridine-8-carboxamide]	2 nM	7.7 nM
Cn1cnnc1[C@]1(c2cccc(NC(=O)c3cc(CNC4(C)CC4)cn4cc(F)nc34)c2)C[C@H](CC#N)C1 [Compound A84, N-(3-((1s, 3s)-3-(cyanomethyl)-1-(4-methyl-4H-1,2,4-triazol-3-yl)cyclobutyl)phenyl)-2-fluoro-6-(((1-methylcyclopropyl)amino)methyl)imidazo[1,2-a]pyridine-8-carboxamide]	0.5 nM	12 nM
Cn1cnnc1[C@]1(c2cccc(NC(=O)c3cc(CNCC4CCC4)cn4ccnc34)c2)C[C@H](C)C1 [Compound A22, 6-(((cyclobutylmethyl)amino)methyl)-N-(3-((1s, 3s)-3-methyl-1-(4-methyl-4H-1,2,4-triazol-3-yl)cyclobutyl)phenyl)imidazo[1,2-a]pyridine-8-carboxamide]	1.1 nM	3.6 nM
CC[C@H](C)NCc1cc(C(=O)Nc2cncc([C@]3(c4nncn4C)C[C@@H](C)C3)c2)nc2cc[nH]c12 [Compound B47, 7-((((S)-sec-butyl)amino)methyl)-N-(5-((1s,3R)-3-methyl-1-(4-methyl-4H-1,2,4-triazol-3-yl)cyclobutyl)pyridin-3-yl)-1H-pyrrolo[3,2-b]pyridine-5-carboxamide]	2.2 nM	6.1 nM
C[C@H](NCc1cc(C(=O)Nc2cccc([C@]3(c4nncn4C)C[C@@H](C)C3)c2)nc2c(F)c[nH]c12)C1CC1 [Compound B37, 7-((((S)-1-cyclopropylethyl)amino)methyl)-3-fluoro-N-(3-((1s,3R)-3-methyl-1-(4-methyl-4H-1,2,4-triazol-3-yl)cyclobutyl)phenyl)-1H-pyrrolo[3,2-b]pyridine-5-carboxamide]	0.8 nM	4.5 nM
[2H]C([2H])([2H])n1cnnc1[C@]1(c2cccc(NC(=O)c3cc(CNC4(C)CC4)cn4ccnc34)c2)C[C@H](C)C1 [Compound A95, N-(3-((1s, 3s)-3-methyl-1-(4-(methyl-d3)-4H-1,2,4-triazol-3-yl)cyclobutyl)phenyl)-6-(((1-methylcyclopropyl)amino)methyl)imidazo[1,2-a]pyridine-8-carboxamide]	0.7 nM	3.4 nM
C[C@H](NCc1cc(C(=O)Nc2cccc([C@]3(c4nncn4C)C[C@@H](CC#N)C3)c2)nc2c1NCC2(C)C)C1CC1 [Compound C27, 7-({[(1S)-1-cyclopropylethyl]amino}methyl)-3,3-dimethyl-N-{3-[(1s, 3s)-3-(cyanomethyl)-1-(4-methyl-1,2,4-triazol-3-yl)cyclobutyl]phenyl}-1H,2H-pyrrolo[3,2-b]pyridine-5-carboxamide]	1 nM	3.5 nM
Cc1cnc2c(C(=O)Nc3cncc([C@]4(c5nncn5C)C[C@@H](C)C4)c3)cc(CNCC3CCC3)cn12 [Compound A56, 6-{[(cyclobutylmethyl)amino]methyl}-3-methyl-N-{5-[(1r, 3s)-3-methyl-1-(4-methyl-1,2,4-triazol-3-yl)cyclobutyl]pyridin-3-yl}imidazo[1,2-a]pyridine-8-carboxamide]	1.5 nM	4.1 nM
Cn1cnnc1[C@]1(c2cccc(NC(=O)c3cc(CNCC4CCC4)cn4c(Cl)cnc34)c2)C[C@H](C)C1 [Compound A57, 3-chloro-6-(((cyclobutylmethyl)amino)methyl)-N-(3-((1s, 3s)-3-methyl-1-(4-methyl-4H-1,2,4-triazol-3-yl)cyclobutyl)phenyl)imidazo[1,2-a]pyridine-8-carboxamide]	0.6 nM	1.8 nM
Cn1cnnc1[C@]1(c2cncc(NC(=O)c3cc(CNC4(C)CC4)cn4c(F)cnc34)c2)C[C@H](C)C1 [Compound A74, 3-fluoro-N-(5-((1s, 3s)-3-methyl-1-(4-methyl-4H-1,2,4-triazol-3-yl)cyclobutyl)pyridin-3-yl)-6-(((1-methylcyclopropyl)amino)methyl)imidazo[1,2-a]pyridine-8-carboxamide]	1.2 nM	4.2 nM
Cn1cnnc1[C@]1(c2cccc(NC(=O)c3cc(CNC4(C)CCC4)cn4ccnc34)c2)C[C@H](C)C1 [Compound A39, N-(3-((1s, 3s)-3-methyl-1-(4-methyl-4H-1,2,4-triazol-3-yl)cyclobutyl)phenyl)-6-(((1-methylcyclobutyl)amino)methyl)imidazo[1,2-a]pyridine-8-carboxamide]	2.7 nM	14.1 nM
Cn1cnnc1[C@]1(c2cncc(NC(=O)c3cc(CNC4(C)CCC4)cn4c(F)cnc34)c2)C[C@H](C)C1 [Compound A76, 3-fluoro-N-(5-((1s, 3s)-3-methyl-1-(4-methyl-4H-1,2,4-triazol-3-yl)cyclobutyl)pyridin-3-yl)-6-(((1-methylcyclobutyl)amino)methyl)imidazo[1,2-a]pyridine-8-carboxamide]	2.6 nM	8.3 nM
Cn1cnnc1C[C@]1(c2cccc(NC(=O)c3cc(CNCC4CCCC(F)(F)C4)c4c(n3)C(C)(C)CC4)c2)C[C@H](C#N)C1 (stereo partly drawn) [Compound C15, N-(3-((1r, 3r)-3-cyano-1-((4-methyl-4H-1,2,4-triazol-3-yl)methyl)cyclobutyl)phenyl)-4-((((3,3-difluorocyclohexyl)methyl)amino)methyl)-7,7-dimethyl-6,7-dihydro-5H-cyclopenta[b]pyridine-2-carboxamide]	1.8 nM	5.2 nM
Cn1cnnc1[C@]1(c2cccc(NC(=O)c3cc(CNC4(C)CC4)cc4c(F)cnn34)c2)C[C@H](C)C1 [Compound A92, 3-fluoro-N-(3-((1s, 3s)-3-methyl-1-(4-methyl-4H-1,2,4-triazol-3-yl)cyclobutyl)phenyl)-5-(((1-methylcyclopropyl)amino)methyl)pyrazolo[1,5-a]pyridine-7-carboxamide]	0.4 nM	2.5 nM
C[C@H](NCc1cc(C(=O)Nc2cccc([C@]3(c4nncn4C)C[C@@H](C)C3)c2)c2ncc(F)n2c1)C1CCC1 [Compound A65, 6-((((S)-1-cyclobutylethyl)amino)methyl)-3-fluoro-N-(3-((1s,3R)-3-methyl-1-(4-methyl-4H-1,2,4-triazol-3-yl)cyclobutyl)phenyl)imidazo[1,2-a]pyridine-8-carboxamide]	0.9 nM	2 nM
